Measured values published in ChEMBL document CHEMBL1152527, “Tessaric acid derivatives induce G2/M cell cycle arrest in human solid tumor cell lines” (2009).
Calls of active or inactive are those of the source. The calls are words filed in the database; no cut-off is given here.

Legend:
Assay type in all cases: functional
[1] = system: SW1573; assay: Cell cycle arrest in human SW1573 cells assessed as accumulation at G2/M phase at 15 uM after 24 hrs by propidium iodide staining-based FACS analysis
[2] = system: HBL-100; assay: Growth inhibition of human HBL100 cells after 48 hrs by sulforhodamine B assay; settings: HBL-100, 48 h
[3] = system: HeLa; assay: Growth inhibition of human HeLa cells after 48 hrs by sulforhodamine B assay
[4] = system: HeLa; assay: Cell cycle arrest in human HeLa cells assessed as decrease in accumulation at G0/G1 phase at 35 uM after 24 hrs by propidium iodide staining-based FACS analysis
[5] = system: T47D; assay: Cell cycle arrest in human T47D cells assessed as decrease in accumulation at S phase at 35 uM after 24 hrs by propidium iodide staining-based FACS analysis
[6] = system: HeLa; assay: Cell cycle arrest in human HeLa cells assessed as accumulation at G2/M phase at 35 uM after 24 hrs by propidium iodide staining-based FACS analysis
[7] = system: WiDr; assay: Growth inhibition of human WiDr cells after 48 hrs by sulforhodamine B assay
[8] = system: SW1573; assay: Cell cycle arrest in human SW1573 cells assessed as accumulation at S phase at 35 uM after 24 hrs by propidium iodide staining-based FACS analysis
[9] = system: T47D; assay: Cell cycle arrest in human T47D cells assessed as increase in accumulation at sub G0 phase at 15 to 35 uM treated for 24 hrs measured after 24 hrs of drug washout by propidium iodide staining-based FACS analysis
[10] = system: SW1573; assay: Cell cycle arrest in human SW1573 cells assessed as accumulation at G2/M phase at 35 uM after 24 hrs by propidium iodide staining-based FACS analysis
[11] = system: SW1573; assay: Cell cycle arrest in human SW1573 cells assessed as decrease in accumulation at G0/G1 phase at 35 uM after 24 hrs by propidium iodide staining-based FACS analysis
[12] = system: T47D; assay: Cell cycle arrest in human T47D cells assessed as accumulation at G2/M phase at 35 uM after 24 hrs by propidium iodide staining-based FACS analysis
[13] = system: WiDr; assay: Cell cycle arrest in human WiDr cells assessed as decrease in accumulation at S phase at 35 uM after 24 hrs by propidium iodide staining-based FACS analysis
[14] = system: HeLa; assay: Cell cycle arrest in human HeLa cells assessed as accumulation at G2/M phase at 15 uM after 24 hrs by propidium iodide staining-based FACS analysis
[15] = system: HeLa; assay: Cell cycle arrest in human HeLa cells assessed as decrease in accumulation at S phase at 15 uM after 24 hrs by propidium iodide staining-based FACS analysis
[16] = system: A2780; assay: Growth inhibition of human A2780 cells after 48 hrs by sulforhodamine B assay; settings: A2780, 48 h
[17] = system: WiDr; assay: Cell cycle arrest in human WiDr cells assessed as accumulation at G2/M phase at 35 uM after 24 hrs by propidium iodide staining-based FACS analysis
[18] = system: WiDr; assay: Cell cycle arrest in human WiDr cells assessed as increase in accumulation at sub G0 phase at 15 to 35 uM treated for 24 hrs measured after 24 hrs of drug washout by propidium iodide staining-based FACS analysis
[19] = system: HeLa; assay: Cell cycle arrest in human HeLa cells assessed as accumulation at S phase at 35 uM after 24 hrs by propidium iodide staining-based FACS analysis
[20] = system: T47D; assay: Growth inhibition of human T47D cells after 48 hrs by sulforhodamine B assay
[21] = system: SW1573; assay: Cell cycle arrest in human SW1573 cells assessed as decrease in accumulation at S phase at 15 uM after 24 hrs by propidium iodide staining-based FACS analysis
[22] = system: SW1573; assay: Growth inhibition of human SW1573 cells after 48 hrs by sulforhodamine B assay; settings: SW1573, 48 h
[23] = system: T47D; assay: Cell cycle arrest in human T47D cells assessed as minor accumulation at S phase at 5 to 20 uM after 24 hrs by propidium iodide staining-based FACS analysis
[24] = system: WiDr; assay: Cell cycle arrest in human WiDr cells assessed as minor accumulation at S phase at 5 to 20 uM after 24 hrs by propidium iodide staining-based FACS analysis
[25] = system: SW1573; assay: Cell cycle arrest in human SW1573 cells assessed as minor accumulation at G2/M phase at 5 to 20 uM after 24 hrs by propidium iodide staining-based FACS analysis
[26] = system: T47D; assay: Cell cycle arrest in human T47D cells assessed as minor accumulation at G2/M phase at 5 to 20 uM after 24 hrs by propidium iodide staining-based FACS analysis
[27] = system: HeLa; assay: Cell cycle arrest in human HeLa cells assessed as minor accumulation at S phase at 5 to 20 uM after 24 hrs by propidium iodide staining-based FACS analysis
[28] = system: SW1573; assay: Cell cycle arrest in human SW1573 cells assessed as minor accumulation at S phase at 5 to 20 uM after 24 hrs by propidium iodide staining-based FACS analysis
[29] = system: HeLa; assay: Cell cycle arrest in human HeLa cells assessed as minor accumulation at G2/M phase at 5 to 20 uM after 24 hrs by propidium iodide staining-based FACS analysis
[30] = system: WiDr; assay: Cell cycle arrest in human WiDr cells assessed as minor accumulation at G2/M phase at 5 to 20 uM after 24 hrs by propidium iodide staining-based FACS analysis
[31] = system: SW1573; assay: Cell cycle arrest in human SW1573 cells assessed as accumulation at G2/M phase at 6 uM after 24 hrs by propidium iodide staining-based FACS analysis
[32] = system: SW1573; assay: Cell cycle arrest in human SW1573 cells assessed as decrease in accumulation at G0/G1 phase at 6 uM after 24 hrs by propidium iodide staining-based FACS analysis
[33] = system: T47D; assay: Cell cycle arrest in human T47D cells assessed as decrease in accumulation at S phase at 6 uM after 24 hrs by propidium iodide staining-based FACS analysis
[34] = system: T47D; assay: Cell cycle arrest in human T47D cells assessed as increase in accumulation at sub G0 phase at 3 to 6 uM treated for 24 hrs measured after 24 hrs of drug washout by propidium iodide staining-based FACS analysis
[35] = system: HeLa; assay: Cell cycle arrest in human HeLa cells assessed as decrease in accumulation at S phase at 3 uM after 24 hrs by propidium iodide staining-based FACS analysis
[36] = system: HeLa; assay: Cell cycle arrest in human HeLa cells assessed as accumulation at G2/M phase at 6 uM after 24 hrs by propidium iodide staining-based FACS analysis
[37] = system: WiDr; assay: Cell cycle arrest in human WiDr cells assessed as increase in accumulation at sub G0 phase at 3 to 6 uM treated for 24 hrs measured after 24 hrs of drug washout by propidium iodide staining-based FACS analysis
[38] = system: SW1573; assay: Cell cycle arrest in human SW1573 cells assessed as accumulation at G2/M phase at 3 uM after 24 hrs by propidium iodide staining-based FACS analysis
[39] = system: SW1573; assay: Cell cycle arrest in human SW1573 cells assessed as decrease in accumulation at S phase at 3 uM after 24 hrs by propidium iodide staining-based FACS analysis
[40] = system: HeLa; assay: Cell cycle arrest in human HeLa cells assessed as accumulation at G2/M phase at 3 uM after 24 hrs by propidium iodide staining-based FACS analysis
[41] = system: HeLa; assay: Cell cycle arrest in human HeLa cells assessed as accumulation at S phase at 6 uM after 24 hrs by propidium iodide staining-based FACS analysis
[42] = system: T47D; assay: Cell cycle arrest in human T47D cells assessed as accumulation at G2/M phase at 6 uM after 24 hrs by propidium iodide staining-based FACS analysis
[43] = system: SW1573; assay: Cell cycle arrest in human SW1573 cells assessed as accumulation at S phase at 6 uM after 24 hrs by propidium iodide staining-based FACS analysis
[44] = system: WiDr; assay: Cell cycle arrest in human WiDr cells assessed as decrease in accumulation at S phase at 6 uM after 24 hrs by propidium iodide staining-based FACS analysis
[45] = system: WiDr; assay: Cell cycle arrest in human WiDr cells assessed as accumulation at G2/M phase at 6 uM after 24 hrs by propidium iodide staining-based FACS analysis
[46] = system: HeLa; assay: Cell cycle arrest in human HeLa cells assessed as decrease in accumulation at G0/G1 phase at 6 uM after 24 hrs by propidium iodide staining-based FACS analysis

SMILES	GI50 ([3]; read-out: GI50)	GI50 ([3]; read-out: pGI50 (converted))	GI50 ([16]; read-out: GI50)	GI50 ([16]; read-out: pGI50 (converted))	GI50 ([20]; read-out: GI50)	GI50 ([20]; read-out: pGI50 (converted))	GI50 ([22]; read-out: GI50)	GI50 ([22]; read-out: pGI50 (converted))	pGI50 [3]	pGI50 [16]	pGI50 [20]	pGI50 [22]	GI50 ([2]; read-out: GI50)	GI50 ([2]; read-out: pGI50 (converted))	GI50 ([7]; read-out: GI50)	GI50 ([7]; read-out: pGI50 (converted))	pGI50 [2]	pGI50 [7]	other results
C=C(CO)[C@@H]1CC[C@@]2(C)CCC[C@@](C)(O)[C@@H]2C1 [ILICIC ALCOHOL]	> 100 µM		> 100 µM		> 100 µM		> 100 µM		4	4	4	4	> 100 µM		> 100 µM		4	4	
C=C(C=O)[C@@H]1CC[C@@]2(C)CCC[C@@](C)(O)[C@@H]2C1 [ILICIC ALDEHYDE]	16 µM	4.8 µM	1.8 µM	5.58 µM	6.5 µM	5.19 µM	2 µM					5.72	2.8 µM	5.56 µM	12 µM	4.92 µM			Activity [23]: Active; Activity [24]: Active; Activity [25]: Active; Activity [26]: Active; Activity [27]: Active; Activity [28]: Active; Activity [29]: Active; Activity [30]: Active
C=C(C(=O)O)[C@@H]1CC[C@@]2(C)CCC[C@@](C)(O)[C@@H]2C1 [ILICIC ACID]	> 100 µM		> 100 µM		> 100 µM		> 100 µM		4	4	4	4	> 100 µM		> 100 µM		4	4	

More lines, main results first:

GI50 ([3]; read-out: GI50)	GI50 ([3]; read-out: pGI50 (converted))	GI50 ([16]; read-out: GI50)	GI50 ([16]; read-out: pGI50 (converted))	GI50 ([20]; read-out: GI50)	GI50 ([20]; read-out: pGI50 (converted))	GI50 ([22]; read-out: GI50)	GI50 ([22]; read-out: pGI50 (converted))	pGI50 [3]	pGI50 [16]	pGI50 [20]	pGI50 [22]	SMILES	GI50 ([2]; read-out: GI50)	GI50 ([2]; read-out: pGI50 (converted))	GI50 ([7]; read-out: GI50)	GI50 ([7]; read-out: pGI50 (converted))	pGI50 [2]	pGI50 [7]	other results
29 µM	4.54 µM	11 µM	4.95 µM	11 µM	4.97 µM	5 µM	5.3 µM					C=C(C(=O)OC)[C@@H]1CCC2=C[C@H](O)C[C@H](C)[C@@]2(C)C1	12 µM	4.91 µM	17 µM	4.77 µM			Activity [1]: Active; Activity [4]: Active; Activity [5]: Active; Activity [6]: Active; Activity [8]: Active; Activity [9]: Active; Activity [10]: Active; Activity [11]: Active; Activity [12]: Active; Activity [13]: Active; Activity [14]: Active; Activity [15]: Active; Activity [17]: Active; Activity [18]: Active; Activity [19]: Active; Activity [21]: Active
4.5 µM		1.9 µM		2.4 µM	5.62 µM	3.8 µM	5.44 µM	5.35	5.75			C=C(C(=O)OC)[C@@H]1CCC2=CC(=O)C[C@H](C)[C@@]2(C)C1 [TESSARIC ACID METHYL ESTER]	2.4 µM		2 µM		5.63	5.74	Activity [31]: Active; Activity [32]: Active; Activity [33]: Active; Activity [34]: Active; Activity [35]: Active; Activity [36]: Active; Activity [37]: Active; Activity [38]: Active; Activity [39]: Active; Activity [40]: Active; Activity [41]: Active; Activity [42]: Active; Activity [43]: Active; Activity [44]: Active; Activity [45]: Active; Activity [46]: Active
13 µM	4.88 µM	18 µM	4.74 µM	35 µM		18 µM	4.74 µM			4.48		C=C(C(=O)OC)[C@@H]1CC[C@@]2(C)CCCC(C)=C2C1	14 µM	4.86 µM	38 µM	4.45 µM			
